According to ChEMBL document CHEMBL1127960, “Latent leishmanicidal activity of quinazolinones and 1,2,4-triazoloquinazolinones” (1994):

system: Leishmania donovani; test: In vitro leishmanicidal activity against promastigotes of Leishmania donovani at 100 ug/ml concentration; assay type: functional

Row | SMILES | Leishmanicidal activity (% promastigotes killed) [%]
1 | CCn1c(=O)c2cc(OC)ccc2n2c(CCl)nnc12 | 67
2 | Cn1c(=O)c2ccc(Cl)cc2n2c(CSC3=NCCN3)nnc12 | 35
3 | Cn1c(=O)c2ccc(Cl)cc2n2c(CCl)nnc12 | 95
4 | Cn1c(=O)c2ccc(Cl)cc2n2c(S)nnc12 | 55
5 | CCn1c(=O)c2cc(OC)ccc2n2cnnc12 | 39
6 | CCn1c(=O)c2ccc(Cl)cc2n2c(C)nnc12 | 49
7 | CCOC(=O)c1c(SC)nn(-c2nc3cc(Cl)ccc3c(=O)n2C)c1N | 0
8 | CCn1c(=O)c2ccc(Cl)cc2n2c(CCl)nnc12 | 70
9 | CCOC(=O)c1c(SC)nn(-c2nc3cc(Cl)ccc3c(=O)n2CC)c1N | 0
10 | Cn1c(=O)c2ccc(Cl)cc2n2cnnc12 | 81
11 | CCn1c(=O)c2cc(OC)ccc2n2c(S)nnc12 | 80
12 | CCn1c(=O)c2ccc(Cl)cc2n2c(CSC3=NCCN3)nnc12 | 24
13 | CCn1c(=S)[nH]c2ccc(OC)cc2c1=O | 12
14 | CCn1c(SCc2nnc3n(CC)c(=O)c4ccc(Cl)cc4n23)nc2ccc(OC)cc2c1=O | 0
15 | CSc1nc2cc(Cl)ccc2c(=O)n1C | 0
16 | CCn1c(=O)c2ccc(Cl)cc2n2cnnc12 | 19
17 | CCn1c(=O)c2cc(OC)ccc2n2c(C)nnc12 | 42
18 | CCn1c(SCc2nnc3n(C)c(=O)c4ccc(Cl)cc4n23)nc2ccc(OC)cc2c1=O | 10
19 | CCn1c(=O)c2ccc(Cl)cc2n2c(S)nnc12 | 30
20 | CCn1c(NN)nc2ccc(OC)cc2c1=O | 0
